Data published in US12391701B2, “Chromene-based compounds, methods and uses thereof” (University of Minho, priority 2019, dated 2025).

Key:
Format in all cases: cell-based
[1] = system: TNBC cell line Hs578t; assay: Cell viability assay (MTS), Hs578t; conditions: Homo sapiens, Hs-578T; 72 h incubation
Excerpt: In an embodiment, for a comparison study, monomers and respective dimers were selected and further evaluated in Hs578t and MDA-MB-468 breast cell lines. […] These cell lines correspond to the basal-like subtype of breast cancer, included in the known triple negative subtype, since they are negative for Estrogen receptor (ER), progesterone receptor (PR) and Human epidermal growth factor receptor 2 (HER2) molecular markers. The clinical behaviour of these breast cancer subtype is very aggressive and there is still no specific molecular therapy available.
(§1) In an embodiment, three human breast cancer cell lines Hs578T, MDA-MB-468 and MCF-7, and a normal breast cell line MCF-10A, were obtained from ATCC (American Type Culture Collection). The cancer cell lines were cultured in Dulbecco's modified Eagle medium, 4.5 g/l glucose (DMEM, Gibco) supplemented with 10% heating inactivated Fetal Bovine Serum (FBS, Gibco) and 1% antibiotic solution (Penicillin-Streptomycin, Gibco). The normal cell line was cultured in Dulbecco's Modified Eagle Medium: Nutrient Mixture F-12 (DMEM/F12, Gibco) supplemented with 5% heating inactivated FBS (Gibco), 1% antibiotic solution (Penicillin-Streptomycin, Gibco), 1% steroid hormone (Hydrocortisone, Sigma-Aldrich), 0.1% peptide hormone (Insulin, Sigma-Aldrich) and 0.01% protein complex (Cholera Toxin, Gibco). Two distinct human acute myeloid leukemia (AML) cell lines, HL-60 (FAB M2) and KG-1 (erythroleukemia-FAB M6), and one human lymphoblastic leukemia (ALL) cell line, Jurkat (T cell type), were also used. These three cell lines were obtained from German Collection of Microorganisms and Cell cultures (DMSZ®, Deutsche Sammlung von Mikroorganismen and Zellkulturen in German). Cells were cultured in RPMI 1640 medium (Biochrom®-Merck Millipore) supplemented with 10% heating inactivated FBS (Biochrom®-Merck Millipore) and 1% antibiotic/antimitotic mixture (Invitrogen®). Three human glioblastoma (GBM) cell line models, two established and commercially available cell lines (U87MG and GAMG, kind gift from Rui M. Reis) and one primary GBM culture (GLIB) were also used. GBM cells were cultures in DMEM (Biochrom-Merck Millipore), all supplemented with 10% FBS. The Renal cell carcinoma cell lines A498, 786-O, Caki-2 and HK2 were obtained from ATCC. The cancer cell line A498 was cultured in MEM medium (Biochrom®-Merck Millipore), 786-O was cultured in RPMI 1640 medium (Biochrom®-Merck Millipore), Caki-2 was cultured in Mc Coys medium (Biochrom®-Merck Millipore) and HK2 was cultured in RPMI 1640 medium (Biochrom®-Merck Millipore). All the media were supplemented with 10% heat inactivated FBS (Biochrom®-Merck Millipore) and 1% antibiotic/antimitotic mixture (Invitrogen®). All cells were grown in a humidified incubator at 37° C. and 5% CO2. For all assays, DMSO (Dimethyl Sulfoxide, Sigma-Aldrich) controls were used.
(§2) In an embodiment, cell viability assays were performed. MCF-7, Hs578T and MCF-10A cells were plated in triplicate in 96-multiwell culture plates, at 3000 cells […], or 5000 cells […] for MDA-MB-468 (100 μL/well). The cells were then allowed to adhere in complete medium, over a period of 18-20 hours. Cells were subsequently treated with 7 different concentrations (from 0.1 to 40 μM or 5 to 60 μM) of compounds or control in fresh medium. HL-60, KG-1 and Jurkat cell lines were plated in 96-multiwell culture plates at 50.000 cells/100 μL per well and treated with different concentrations (from 0.001 to 2 μM) of the compounds described (or control). Cells were plated, in triplicate, at an initial density of 2000 cells/well for GAMG, 4000 cells/well for GL18 and 6000 cells/well for U87MG, in 96-well plates, and allowed to adhere for 18-20 hours. Cells were then treated with different concentrations of the compounds (0.005 to 100 μM) or with control. […]

[2] = system: renal carcinoma cell lines; assay: First screen against renal carcinoma cell lines; conditions: IC50 determination not pursued
Excerpt: (§3) In an embodiment, the antiproliferative activity of the compounds was further determined against renal carcinoma cell lines and non-neoplastic kidney cell line.

[3] = system: TNBC cell line MDA-MB-231; assay: Cell viability assay, MDA-MB-231; conditions: Homo sapiens
[4] = system: non-neoplastic cell line MCF-10A; assay: Cell viability assay (MTS), MCF-10A; conditions: Homo sapiens, 72 h incubation
Procedure: (§4) In an embodiment, the cell growth inhibition and IC50 values of the synthesised and isolated chromene-based compounds were determined as part of the evaluation of the antiproliferative activity of the isolated agents. A complete study on the structure-activity relationship was performed for all the synthesised compounds. The antiproliferative activity against MCF-7 breast cancer cell lines were analysed. […] The non-neoplastic cell line MCF-10A was also used to determine the selectivity of the compounds for the tumour cells. For compounds with an IC50 value (concentration required to reduce cell viability by 50%) higher than 20 μM, the IC50 value was not determined. Selectivity index (SI) was calculated in order to evaluate the cytotoxicity of the tested compounds.
as §1
as §2, with “hours.” for “hours. Cells were then treated with different concentrations of the compounds (0.005 to 100 μM) or with control.”

[5] = system: breast cancer cell line MCF-7; assay: Cell viability assay (MTS), MCF-7; conditions: Homo sapiens, MCF7; 72 h incubation
Procedure: as §4, §1
as §2, with “hours.” for “hours. Cells were then treated with different concentrations of the compounds (0.005 to 100 μM) or with control.”

[6] = system: non-neoplastic cell line (HK2); assay: Cell viability, HK2; conditions: Table 5; read-out: IC50 HK2
Procedure: as §3, §1
as §2, with “control. A498 and 786-O cells were plated at 2000 cells per mL, Caki-2 cells were plated at 3000 cells per mL and HK2 cells were plated at 2000 cells per mL in triplicate, in 96-multiwell culture plates (100 μL/well), and allowed to adhere over a period of 18-20 hours in complete medium. The cells were then treated with 7 different concentrations (from 0.1 to 40 μM or 5 to 60 μM) of compounds or control in fresh medium.” for “control.”

[7] = system: renal carcinoma cell line Caki-2; assay: Cell viability (sulforhodamine B), Caki-2; conditions: Homo sapiens, Table 5
Procedure: as §3, §1
as §2, with “control. A498 and 786-O cells were plated at 2000 cells per mL, Caki-2 cells were plated at 3000 cells per mL and HK2 cells were plated at 2000 cells per mL in triplicate, in 96-multiwell culture plates (100 μL/well), and allowed to adhere over a period of 18-20 hours in complete medium. The cells were then treated with 7 different concentrations (from 0.1 to 40 μM or 5 to 60 μM) of compounds or control in fresh medium.” for “control.”

[8] = system: renal carcinoma cell line A498; assay: Cell viability (sulforhodamine B), A498; conditions: Homo sapiens, Table 5
Procedure: as §3, §1
as §2, with “control. A498 and 786-O cells were plated at 2000 cells per mL, Caki-2 cells were plated at 3000 cells per mL and HK2 cells were plated at 2000 cells per mL in triplicate, in 96-multiwell culture plates (100 μL/well), and allowed to adhere over a period of 18-20 hours in complete medium. The cells were then treated with 7 different concentrations (from 0.1 to 40 μM or 5 to 60 μM) of compounds or control in fresh medium.” for “control.”

[9] = system: renal carcinoma cell line 786-O; assay: Cell viability (sulforhodamine B), 786-O; conditions: Homo sapiens, 786-0; Table 5
Procedure: as §3, §1
as §2, with “control. A498 and 786-O cells were plated at 2000 cells per mL, Caki-2 cells were plated at 3000 cells per mL and HK2 cells were plated at 2000 cells per mL in triplicate, in 96-multiwell culture plates (100 μL/well), and allowed to adhere over a period of 18-20 hours in complete medium. The cells were then treated with 7 different concentrations (from 0.1 to 40 μM or 5 to 60 μM) of compounds or control in fresh medium.” for “control.”

| SMILES | IC50 [1] [nM] | biological activity in a first screen [2] | IC50 [3] [nM] | IC50 [4] [nM] | IC50 [5] [nM] | IC50 [6] [nM] | IC50 [7] [nM] | IC50 [8] [nM] | IC50 [9] [nM] |
| --- | --- | --- | --- | --- | --- | --- | --- | --- | --- |
| COc1cccc(-c2nc3c([nH]2)Cc2cccc(OC)c2O3)c1O [Compound M955] | > 20000 | did not demonstrate any biological activity | 15700 | > 30000 | 4150 | – | – | – | – |
| COc1cccc2c1Oc1nc(-c3cccc(F)c3)[nH]c1C2 [MC349, 2-(3-fluorophenyl)-5-methoxy-3,9-dihydrochromeno[2,3-d]imidazoles] | 640 | – | 1230 | 2300 | 770 | 2630 | 440 | 1120 | 446 |
| Oc1ccc(Cl)cc1-c1nc2c([nH]1)Cc1cc(Cl)ccc1O2 [Compound M1143] | > 30000 | did not demonstrate any biological activity | > 30000 | – | > 30000 | – | – | – | – |
| Oc1ccc(Br)cc1-c1nc2c([nH]1)Cc1cc(Br)ccc1O2 [Compound M1221] | – | did not demonstrate any biological activity | > 30000 | – | > 30000 | – | – | – | – |
| COc1cccc2c1Oc1nc(-c3cccc(O)c3)[nH]c1C2 [MC359, 3-(5-methoxy-3,9-dihydrochromeno[2,3-d]imidazol-2-yl)phenol] | 3480 | – | 2700 | 6660 | 2820 | 5290 | 2340 | 2450 | 3210 |
| COc1cccc2c1Oc1nc(-c3ccc(Cl)cc3)[nH]c1C2 [MC412, 2-(4-chlorophenyl)-5-methoxy-3,9-dihydrochromeno[2,3-d]imidazoles] | 980 | – | 1670 | 1740 | 440 | 1630 | 39 | 290 | 32 |
| COc1ccc2c(c1)Cc1[nH]c(-c3cc(OC)ccc3O)nc1O2 [Compound M1220] | > 30000 | did not demonstrate any biological activity | – | > 30000 | 5850 | – | – | – | – |
| Oc1ccccc1-c1nc2c([nH]1)Cc1ccccc1O2 [Compound M1159] | – | – | 10400 | > 30000 | 3680 | 5610 | – | 13600 | 3040 |
